# Data: patent US10670605B2, “Cysteine reactive probes and uses thereof” (The Scripps Research Institute, priority 2015, dated 2020)
# How the values were obtained:
# Test in all cases: Competitive isoTOP-ABPP in situ (fragment-treated cells)
# Format in all cases: cell-based
# [1] = target: cysteines in MDA-MB-231 and Ramos cells (Homo sapiens, UniProt P52948); details: 200 μM, insitu, 231
# [2] = target: T1, cysteines in MDA-MB-231 and Ramos cells (Homo sapiens, UniProt Q6ICB0); details: 200 μM, insitu
# T1 sequence (Q6ICB0 1-168): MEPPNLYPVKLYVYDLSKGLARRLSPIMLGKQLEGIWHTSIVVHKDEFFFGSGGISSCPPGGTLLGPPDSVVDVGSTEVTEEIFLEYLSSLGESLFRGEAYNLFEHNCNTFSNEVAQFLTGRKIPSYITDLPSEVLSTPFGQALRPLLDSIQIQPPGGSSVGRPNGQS
# [3] = target: T2, cysteines in MDA-MB-231 and Ramos cells (Homo sapiens, UniProt Q96P48); details: 200 μM, insitu
# T2 sequence (Q96P48 1-1450): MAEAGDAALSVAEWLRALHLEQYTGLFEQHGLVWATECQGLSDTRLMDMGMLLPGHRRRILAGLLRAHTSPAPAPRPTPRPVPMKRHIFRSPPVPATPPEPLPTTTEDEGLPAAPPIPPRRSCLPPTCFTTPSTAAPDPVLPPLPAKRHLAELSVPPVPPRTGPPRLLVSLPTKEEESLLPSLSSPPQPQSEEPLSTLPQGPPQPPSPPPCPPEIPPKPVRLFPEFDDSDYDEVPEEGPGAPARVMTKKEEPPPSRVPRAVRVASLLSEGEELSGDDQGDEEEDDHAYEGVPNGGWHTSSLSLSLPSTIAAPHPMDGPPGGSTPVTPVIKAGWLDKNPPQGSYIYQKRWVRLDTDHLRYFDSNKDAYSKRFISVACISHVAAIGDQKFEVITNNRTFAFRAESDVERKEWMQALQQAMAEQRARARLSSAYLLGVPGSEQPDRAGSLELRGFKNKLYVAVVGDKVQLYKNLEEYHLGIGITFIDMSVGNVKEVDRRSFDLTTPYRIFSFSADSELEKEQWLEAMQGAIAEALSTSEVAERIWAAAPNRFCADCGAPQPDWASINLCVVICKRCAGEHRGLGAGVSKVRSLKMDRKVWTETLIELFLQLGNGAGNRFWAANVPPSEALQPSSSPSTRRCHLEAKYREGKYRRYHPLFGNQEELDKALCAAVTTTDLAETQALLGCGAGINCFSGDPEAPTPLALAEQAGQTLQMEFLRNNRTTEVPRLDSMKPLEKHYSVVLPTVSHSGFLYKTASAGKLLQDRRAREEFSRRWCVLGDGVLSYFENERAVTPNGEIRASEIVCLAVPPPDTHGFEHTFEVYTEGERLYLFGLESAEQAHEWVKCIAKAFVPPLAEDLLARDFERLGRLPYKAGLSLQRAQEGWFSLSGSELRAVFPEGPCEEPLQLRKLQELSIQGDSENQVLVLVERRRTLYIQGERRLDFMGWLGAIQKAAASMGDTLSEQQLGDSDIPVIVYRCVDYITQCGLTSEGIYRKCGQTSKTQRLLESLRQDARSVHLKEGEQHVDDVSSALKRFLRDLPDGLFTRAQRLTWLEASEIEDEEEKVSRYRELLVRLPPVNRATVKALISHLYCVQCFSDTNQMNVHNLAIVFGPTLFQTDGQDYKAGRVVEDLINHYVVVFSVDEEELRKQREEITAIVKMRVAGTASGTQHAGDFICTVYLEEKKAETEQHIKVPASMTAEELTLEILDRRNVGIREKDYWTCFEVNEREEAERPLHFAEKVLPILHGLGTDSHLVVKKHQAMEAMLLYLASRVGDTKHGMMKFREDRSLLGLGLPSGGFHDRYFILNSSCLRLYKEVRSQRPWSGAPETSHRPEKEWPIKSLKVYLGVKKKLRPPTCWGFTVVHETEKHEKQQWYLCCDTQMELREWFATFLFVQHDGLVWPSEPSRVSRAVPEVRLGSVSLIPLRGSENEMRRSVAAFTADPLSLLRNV
# [4] = target: T3, cysteines in MDA-MB-231 and Ramos cells (Homo sapiens, UniProt P24468); details: 200 μM, insitu, 231
# T3 sequence (P24468 1-414): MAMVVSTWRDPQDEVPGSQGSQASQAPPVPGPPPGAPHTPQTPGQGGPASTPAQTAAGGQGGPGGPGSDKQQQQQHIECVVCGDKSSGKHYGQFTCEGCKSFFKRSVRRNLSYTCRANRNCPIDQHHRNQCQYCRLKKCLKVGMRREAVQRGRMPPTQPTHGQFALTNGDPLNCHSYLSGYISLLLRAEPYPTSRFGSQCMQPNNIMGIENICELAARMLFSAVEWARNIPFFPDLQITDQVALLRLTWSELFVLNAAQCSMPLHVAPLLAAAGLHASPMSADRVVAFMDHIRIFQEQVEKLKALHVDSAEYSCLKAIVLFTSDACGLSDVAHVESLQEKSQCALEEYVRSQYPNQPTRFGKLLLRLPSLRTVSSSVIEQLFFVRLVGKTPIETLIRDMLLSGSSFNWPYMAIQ
# [5] = target: cysteines in MDA-MB-231 and Ramos cells (Homo sapiens, UniProt Q9Y6G9); details: 200 μM, insitu
# Sequence of cysteines in MDA-MB-231 and Ramos cells (Homo sapiens, UniProt Q9Y6G9) (Q9Y6G9 whole entry): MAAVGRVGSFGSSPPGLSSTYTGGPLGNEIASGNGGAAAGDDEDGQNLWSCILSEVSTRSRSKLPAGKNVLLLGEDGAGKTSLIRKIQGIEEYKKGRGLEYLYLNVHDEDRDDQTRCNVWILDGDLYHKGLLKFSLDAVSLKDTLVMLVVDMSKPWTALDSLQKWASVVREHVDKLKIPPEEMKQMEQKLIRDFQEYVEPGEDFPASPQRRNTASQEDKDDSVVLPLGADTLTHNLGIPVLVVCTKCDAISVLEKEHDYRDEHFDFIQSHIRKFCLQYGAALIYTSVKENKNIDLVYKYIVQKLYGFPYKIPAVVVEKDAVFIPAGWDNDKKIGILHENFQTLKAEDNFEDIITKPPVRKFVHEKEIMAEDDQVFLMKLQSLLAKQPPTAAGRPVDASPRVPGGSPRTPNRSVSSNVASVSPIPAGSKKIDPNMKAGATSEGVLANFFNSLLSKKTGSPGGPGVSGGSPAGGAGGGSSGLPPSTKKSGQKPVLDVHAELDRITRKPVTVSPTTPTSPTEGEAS
# [6] = target: cysteines in MDA-MB-231 and Ramos cells (Homo sapiens, UniProt Q15149); details: 200 μM, insitu, 231
# [7] = target: T4, cysteines in MDA-MB-231 and Ramos cells (Homo sapiens, UniProt P35754); details: 200 μM, insitu
# T4 sequence (P35754 1-106): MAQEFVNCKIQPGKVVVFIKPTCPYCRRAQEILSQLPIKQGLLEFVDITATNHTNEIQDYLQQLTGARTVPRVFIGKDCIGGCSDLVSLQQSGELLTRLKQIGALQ
# [8] = target: cysteines in MDA-MB-231 and Ramos cells (Homo sapiens, UniProt Q9UJW0); details: 200 μM, insitu
# Sequence of cysteines in MDA-MB-231 and Ramos cells (Homo sapiens, UniProt Q9UJW0) (Q9UJW0 whole entry): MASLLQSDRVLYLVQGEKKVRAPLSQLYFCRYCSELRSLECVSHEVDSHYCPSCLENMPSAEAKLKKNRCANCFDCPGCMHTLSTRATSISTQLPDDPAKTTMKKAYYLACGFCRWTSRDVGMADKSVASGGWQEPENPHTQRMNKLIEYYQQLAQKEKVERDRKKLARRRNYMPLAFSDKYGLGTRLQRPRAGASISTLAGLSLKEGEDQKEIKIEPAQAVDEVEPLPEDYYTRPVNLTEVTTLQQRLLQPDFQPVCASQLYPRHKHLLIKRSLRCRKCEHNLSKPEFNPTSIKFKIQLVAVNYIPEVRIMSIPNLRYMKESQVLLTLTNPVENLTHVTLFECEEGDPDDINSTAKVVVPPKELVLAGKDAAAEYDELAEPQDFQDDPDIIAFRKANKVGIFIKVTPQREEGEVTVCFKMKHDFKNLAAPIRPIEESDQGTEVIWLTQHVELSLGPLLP
# [9] = target: T5, cysteines in MDA-MB-231 and Ramos cells (Homo sapiens, UniProt Q13158); details: 200 μM, insitu
# T5 sequence (Q13158 1-208): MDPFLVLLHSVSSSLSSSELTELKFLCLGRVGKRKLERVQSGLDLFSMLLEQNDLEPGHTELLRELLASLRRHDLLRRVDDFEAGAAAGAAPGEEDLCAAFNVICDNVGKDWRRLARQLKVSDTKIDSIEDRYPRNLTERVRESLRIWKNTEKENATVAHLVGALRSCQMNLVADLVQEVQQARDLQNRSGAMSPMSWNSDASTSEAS
# [10] = target: cysteines in MDA-MB-231 and Ramos cells (Homo sapiens, UniProt P45984); details: 200 μM, insitu
# Sequence of cysteines in MDA-MB-231 and Ramos cells (Homo sapiens, UniProt P45984) (P45984 whole entry): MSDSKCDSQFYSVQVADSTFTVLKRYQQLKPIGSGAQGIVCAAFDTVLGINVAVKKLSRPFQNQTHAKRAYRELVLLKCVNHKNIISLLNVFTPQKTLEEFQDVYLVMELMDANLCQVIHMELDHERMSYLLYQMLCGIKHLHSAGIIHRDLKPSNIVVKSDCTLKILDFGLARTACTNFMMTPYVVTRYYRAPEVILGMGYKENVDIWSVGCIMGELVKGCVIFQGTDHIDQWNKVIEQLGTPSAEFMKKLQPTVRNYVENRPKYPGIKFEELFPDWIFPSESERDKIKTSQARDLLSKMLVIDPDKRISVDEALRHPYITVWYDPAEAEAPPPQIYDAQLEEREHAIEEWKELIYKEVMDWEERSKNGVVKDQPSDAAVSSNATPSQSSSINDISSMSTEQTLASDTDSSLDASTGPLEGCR
# Sequence of cysteines in MDA-MB-231 and Ramos cells (Homo sapiens, UniProt P52948) (P52948 whole entry): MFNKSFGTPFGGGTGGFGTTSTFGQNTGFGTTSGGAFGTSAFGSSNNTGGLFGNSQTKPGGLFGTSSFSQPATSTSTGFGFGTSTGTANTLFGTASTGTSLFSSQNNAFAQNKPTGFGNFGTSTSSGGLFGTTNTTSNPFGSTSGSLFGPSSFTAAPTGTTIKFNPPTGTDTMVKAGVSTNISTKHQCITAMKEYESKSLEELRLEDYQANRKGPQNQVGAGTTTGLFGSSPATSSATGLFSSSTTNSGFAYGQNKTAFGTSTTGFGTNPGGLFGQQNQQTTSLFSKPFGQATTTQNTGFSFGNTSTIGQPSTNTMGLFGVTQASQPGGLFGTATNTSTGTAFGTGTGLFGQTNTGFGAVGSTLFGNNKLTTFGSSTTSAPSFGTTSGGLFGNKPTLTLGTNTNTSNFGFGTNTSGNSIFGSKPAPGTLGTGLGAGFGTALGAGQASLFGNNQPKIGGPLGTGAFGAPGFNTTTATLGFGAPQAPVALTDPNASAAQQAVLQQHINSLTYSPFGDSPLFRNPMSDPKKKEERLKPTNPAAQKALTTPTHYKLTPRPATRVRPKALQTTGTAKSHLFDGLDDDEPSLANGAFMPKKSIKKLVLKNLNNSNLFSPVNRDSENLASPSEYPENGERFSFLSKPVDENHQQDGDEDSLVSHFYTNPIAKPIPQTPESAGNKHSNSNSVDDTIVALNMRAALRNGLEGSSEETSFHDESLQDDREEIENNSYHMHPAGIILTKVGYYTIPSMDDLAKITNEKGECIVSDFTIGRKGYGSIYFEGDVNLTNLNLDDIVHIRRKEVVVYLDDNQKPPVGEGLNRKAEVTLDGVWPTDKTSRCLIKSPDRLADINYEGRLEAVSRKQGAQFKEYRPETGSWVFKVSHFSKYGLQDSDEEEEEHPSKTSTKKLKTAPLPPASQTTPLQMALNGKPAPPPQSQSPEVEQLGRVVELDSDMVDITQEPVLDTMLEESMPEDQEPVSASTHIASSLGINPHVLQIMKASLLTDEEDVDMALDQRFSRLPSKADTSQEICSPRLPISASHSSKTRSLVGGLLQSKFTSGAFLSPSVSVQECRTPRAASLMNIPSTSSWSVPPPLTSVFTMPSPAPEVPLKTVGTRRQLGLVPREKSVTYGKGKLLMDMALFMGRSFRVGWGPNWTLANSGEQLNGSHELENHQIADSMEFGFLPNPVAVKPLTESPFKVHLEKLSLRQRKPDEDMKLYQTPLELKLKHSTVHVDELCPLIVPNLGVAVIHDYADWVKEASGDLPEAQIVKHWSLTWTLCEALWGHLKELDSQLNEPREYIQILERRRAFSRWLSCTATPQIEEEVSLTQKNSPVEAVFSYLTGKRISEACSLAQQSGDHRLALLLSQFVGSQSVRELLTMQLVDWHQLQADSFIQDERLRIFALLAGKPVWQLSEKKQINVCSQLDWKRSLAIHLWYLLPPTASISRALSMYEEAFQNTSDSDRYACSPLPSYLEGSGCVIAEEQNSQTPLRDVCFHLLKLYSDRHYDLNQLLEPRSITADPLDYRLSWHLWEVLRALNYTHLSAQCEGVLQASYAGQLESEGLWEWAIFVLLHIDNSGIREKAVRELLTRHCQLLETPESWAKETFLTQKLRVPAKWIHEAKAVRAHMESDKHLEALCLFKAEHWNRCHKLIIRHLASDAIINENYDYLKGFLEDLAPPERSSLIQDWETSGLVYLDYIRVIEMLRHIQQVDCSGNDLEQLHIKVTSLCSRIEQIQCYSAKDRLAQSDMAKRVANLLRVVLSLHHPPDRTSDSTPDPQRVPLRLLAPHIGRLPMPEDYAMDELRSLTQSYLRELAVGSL
Structure (SMILES),isoTOP-ABPP ratio Q6ICB0_C108 [2]; 231,isoTOP-ABPP ratio Q9Y6G9_C51 [5]; 231,isoTOP-ABPP ratio P35754_C23 [7]; 231,isoTOP-ABPP ratio Q9UJW0_C258 [8]; 231,isoTOP-ABPP ratio P24468_C326 [4],isoTOP-ABPP ratio Q13158_C98 [9]; 231,further results
O=C(CCl)NC12CC3CC(CC(C3)C1)C2 [compound 21],0.6,0.6,–,–,–,–,"isoTOP-ABPP ratio, cysteine P52948_C1312 [1]: 1.1; isoTOP-ABPP ratio, cysteine Q96P48_C900 [3]; 231: 0.7; isoTOP-ABPP ratio, cysteine P24468_C326 [4]: 1.1; isoTOP-ABPP ratio, cysteine Q15149_C4574 [6]: 1.0"
CC(C)CCOCCNC(=O)CCl [compound 27],1.9,0.6,0.7,0.8,1.2,0.6,isoTOP-ABPP ratio P52948_C1312 [1]: 1.3; isoTOP-ABPP ratio Q15149_C4574 [6]: 1.3; isoTOP-ABPP ratio P45984_C177 [10]; 231: 0.5
COc1ccccc1OCCNC(=O)CCl [compound 28],–,0.7,1.4,–,–,–,–
O=C(CCl)N1CCN(CC(=O)N2CCOCC2)CC1 [compound 29],–,–,–,–,–,–,isoTOP-ABPP ratio Q6ICB0_C108 ([2]; ramos): 1.0; isoTOP-ABPP ratio Q9UJW0_C258 ([8]; ramos): 20.0; isoTOP-ABPP ratio Q96P48_C900 ([3]; ramos): 1.1; isoTOP-ABPP ratio Q13158_C98 ([9]; ramos): 1.3; isoTOP-ABPP ratio P45984_C177 ([10]; ramos): 1.7
C=CC(=O)N(Cc1cccnc1)c1cc(C(F)(F)F)cc(C(F)(F)F)c1 [compound 31],1.2,–,0.6,–,–,0.9,isoTOP-ABPP ratio Q6ICB0_C108 ([2]; ramos): 1.3; isoTOP-ABPP ratio P35754_C23 ([7]; ramos): 1.1; isoTOP-ABPP ratio Q96P48_C900 [3]; 231: 1.1; isoTOP-ABPP ratio Q9Y6G9_C51 ([5]; ramos): 1.6

# Further lines, with some results ahead:
isoTOP-ABPP ratio Q6ICB0_C108 [2]; 231,isoTOP-ABPP ratio Q9Y6G9_C51 [5]; 231,isoTOP-ABPP ratio P35754_C23 [7]; 231,isoTOP-ABPP ratio Q9UJW0_C258 [8]; 231,isoTOP-ABPP ratio P24468_C326 [4],isoTOP-ABPP ratio Q13158_C98 [9]; 231,Structure (SMILES),further results
1.1,–,0.9,–,–,1.5,C=CC(=O)Nc1cc(F)c(N2CCN(C(=O)OC(C)(C)C)CC2)c(F)c1 [compound 38],isoTOP-ABPP ratio P52948_C1312 [1]: 1.3
–,0.7,0.5,0.7,0.8,–,Cc1ccc(C=C(C#N)C(=O)NCCN2CCOCC2)cc1 [compound 41],isoTOP-ABPP ratio Q96P48_C900 [3]; 231: 0.5; isoTOP-ABPP ratio Q15149_C4574 [6]: 0.9; isoTOP-ABPP ratio P45984_C177 [10]; 231: 0.5
3.1,–,16.3,2.7,20.0,–,CC1CCc2ccccc2N1C(=O)CCl (stereo not shown) [compound 45],–
1.1,–,–,1.1,–,–,O=C(CCl)Nc1cccc2ncccc12 [compound 51],–
